According to patent publication US7449495B2, “Retinoid derivatives with antiangiogenic, antitumoral and proapoptotic activities” (Sigma-Tau Industrie Farmaceutiche Riunite S.p.A., priority 2001, dated 2008):
pIC50: −log10 of the molar value.

What was measured:
[1] = test system: no small cell lung carcinoma A431; assay: Cytotoxicity test (sulphorodamine B), A431; type: cell-based; settings: Homo sapiens, A-431, 24 h incubation, survival 48 h after removal
Excerpt: (§1) Different cell lines deriving from solid tumors were also used. • 1. Human prostate carcinoma PC3 and DU145. These cell lines were maintained in RPMI 1640 medium containing 10% FCS, 1% sodium pyruvate and 1% glutamine; • 2. Human colon adenocarcinoma LoVo. This cell line was maintained in HAM's F-12 medium, containing 10% FCS and 1% glutamine. • 3. Human ovarian carcinoma such as A2780 and A2780/Dx, sensitive and resistant to drugs, respectively (doxorubicin, taxol, etoposide, vincristine); IGROV-1 and IGROV-1/Pt, sensitive and resistant to platinum-based chemotherapy, respectively, were maintained in RPMI 1640 medium containing 10% FCS, 1% sodium pyruvate and 1% glutamine; • 4. Human melanoma MeWo and MeS 2.21, glioblastoma GBM, no small cell lung carcinomas A431, NCI—H460, osteosarcomas SAOS and U2OS were maintained in RPMI 1640 medium containing 10% FCS, 1% sodium pyruvate and 1% glutamine.
(§2) The cytotoxicity tests were carried out using NB4 or HL-60 cells in suspension (10000/well). The cells were seeded in a volume of 250 μl in 96 well plates and incubated for 24 hours at 37° C. […] The optical density was measured using a Multiskan spectrophotometer at 540 nm. […]
(§3) Cell survival was determined by incubation with ST1926 for 24 hours, 48 hours after the removal of the compound. […]

[2] = test system: Human ovarian carcinoma IGROV-1/Pt (platinum resistant); assay: Cytotoxicity test (sulphorodamine B), IGROV-1/Pt; type: cell-based; settings: 24 h incubation, survival 48 h after removal
Excerpt: as §1, §2, §3

[3] = test system: Human ovarian carcinoma A2780/Dx (drug resistant); assay: Cytotoxicity test (sulphorodamine B), A2780/Dx; type: cell-based; settings: 24 h incubation, survival 48 h after removal
Excerpt: as §1, §2, §3

[4] = test system: KG-1 and HL-60R leukemia and MDA-MB-231 breast cancer cells; settings: cited from earlier work
[5] = test system: HL60 acute promyelocytic leukaemia cell line; assay: Cytotoxicity test (sulphorodamine B), HL-60; type: cell-based; settings: Homo sapiens, 24 h incubation, survival 48 h after removal
Excerpt: To carry out the cytotoxicity tests, two acute promyelocytic leukaemia (APL) cell lines were used. • 1. Cell line NB4, carrying the chromosomal translocation t(15; 17) which generates the fusion protein PML/RARα. This cell line is extremely sensitive to the differentiating action of pharmaceutical doses of ATRA (10^−7-10^−6 M); • 2. Cell line HL60, which responds to ATRA less sensitively with respect to cell line NB4.
These cell lines were maintained in RPMI 1640 containing 10% foetal calf serum (FCS) and 1% glutamine.
The cytotoxicity tests were carried out using NB4 or HL-60 cells in suspension (10000/well). The cells were seeded in a volume of 250 μl in 96 well plates and incubated for 24 hours at 37° C. The following day, test compound ST 1926 [(2E)-3-[3′-(1-Adamantyl)-4′-hydroxy[1,1′-biphenyl]-4-yl]-2-propenoate/ic acid] was added at increasing concentrations, and the cells were incubated for a further 24 hours at 37° C. in a humidified atmosphere containing 5% CO2. On the 3rd day, the medium was removed by centrifuging the plate at 1600×g for 10 min and the supernatant decanted. […] The optical density was measured using a Multiskan spectrophotometer at 540 nm.
as §3

[6] = test system: A2780/Dx multidrug-resistant human ovarian carcinoma cells; assay: Cytotoxicity in combination with TRAIL, A2780/Dx; type: cell-based; settings: 72 hours, value >1 synergism (FIG. 1)
Protocol: FIG. 1 is a graph showing the interaction between ST1926 and TRAIL in A2780/Dx multidrug-resistant human ovarian carcinoma cells at different concentrations of TRAIL.
A study of cytotoxicity of ST1926 in combination with TRAIL was performed in two different tumor cell lines such as M109 murine lung carcinoma and A2780/Dx multidrug-resistant human ovarian carcinoma. Cells were maintained in RPMI 1640 medium containing 10% FCS, 1% sodium pyruvate and 1% glutamine.
The cells were seeded in a volume of 250 μl in 96 well plates and incubated for 24 hours at 37° C. The following day, test compound ST 1926 [(2E)-3-[3′-(1-Adamantyl)-4′-hydroxy[1,1′-biphenyl]-4-yl]-2-propenoate/ic acid] or TRAIL were added at increasing concentrations, and the cells were incubated for a further 72 hours at 37° C. in a humidified atmosphere containing 5% CO2. On the 5th day, the supernatant was removed by upturning the plates. 200 μl of PBS and 50 μl of cold, 80% TCA were added. The plates were then left to incubate on ice for at least 1 hour. The TCA was removed by upturning; the plates were washed three times by immersion in distilled water and dried first on paper, then with a jet of hot air. […] The optical density was measured using a Multiskan spectrophotometer at 540 nm.
The interaction between ST1926 and TRAIL was determined by using the analysis of Drewinko et al. (Cancer Biochem. Biophys. 1: 187-195, 1976). […]

SMILES: O=C(O)/C=C/c1ccc(-c2ccc(O)c(C34CC5CC(CC(C5)C3)C4)c2)cc1 [ST1926, E-4-(3-(1-adamantyl)-4-hydroxyphenyl)cinnamic acid]
- pIC50 [1]: 6.60
- pIC50 [2]: 6.48
- pIC50 [3]: 6.70
- induction of cancer cell apoptosis (in words) [4]: effectively induced cancer cell apoptosis
- pIC50 [5]: 6.70
- interaction between ST1926 and TRAIL (analysis of Drewinko et al.) [6]: synergic activity
